Results taken from patent US7998952B2, “Thiolactams and uses thereof” (Millennium Pharmaceuticals, Inc., priority 2008, dated 2011).

Target: T1, recombinant human PLK1[2-369]T210D (Homo sapiens, UniProt P53350, T210D)
T1 construct: recombinant human PLK1[2-369]T210D; Smt (SUMO) fusion partner (N, cleaved yes); host or cells: E. coli
Assay: PLK1 DELFIA Kinase Assay
Format: biochemical
Conditions: 50 μM ATP, 2 μM peptide substrate, 0.3 nM enzyme, 90 minutes at room temperature
Protocol: Recombinant human PLK1 was expressed in E. coli as an N-terminal Smt fusion protein using a proprietary vector (pSGX4) by Structural Genomics (SGX). The fusion partner was removed through cleavage with Ulp1 after an initial purification using a Ni2+ affinity column.
PLK1 DELFIA® Kinase Assay
The enzymatic reaction mixture, with or without PLK inhibitors, was incubated 90 minutes at room temperature before termination with 50 μL of STOP buffer containing 1% BSA, 0.05% Tween20, 100 mM EDTA. 50 μL of the stopped enzyme reaction mixture was transferred to a Neutravidin-coated 384-well plate (Pierce) and incubated at room temperature for 60 minutes. […] The wells were washed and then the bound europium was liberated using 50 μL of Enhancement Solution (Perkin Elmer). Quantification of europium was done using a Pherastar (BMG Labtech)

T1 sequence (P53350 2-369 T210D): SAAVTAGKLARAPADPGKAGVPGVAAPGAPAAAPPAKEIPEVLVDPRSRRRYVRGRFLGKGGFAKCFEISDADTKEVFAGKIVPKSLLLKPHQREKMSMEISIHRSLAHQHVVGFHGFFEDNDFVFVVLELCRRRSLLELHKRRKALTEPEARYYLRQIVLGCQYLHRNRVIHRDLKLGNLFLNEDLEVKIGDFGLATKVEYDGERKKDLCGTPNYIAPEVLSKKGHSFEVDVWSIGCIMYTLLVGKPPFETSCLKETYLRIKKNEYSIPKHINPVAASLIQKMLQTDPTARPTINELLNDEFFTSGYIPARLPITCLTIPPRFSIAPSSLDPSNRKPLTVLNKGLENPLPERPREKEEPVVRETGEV

Compound: CN(C)CCc1cncc(Nc2ncc3c(n2)-c2ccc(C(F)(F)F)cc2NC(=S)C3)c1 [Compound I-25, 2-({5-[2-(dimethylamino)ethyl]pyridin-3-yl}amino)-9-(trifluoromethyl)-5,7-dihydro-6H-pyrimido[5,4-d][1]benzazepine-6-thione]
- IC50: < 5 nM

Compound: Cc1ncc(CCN2CCN(C)CC2)cc1Nc1ncc2c(n1)-c1ccc(C(F)(F)F)cc1NC(=S)C2 [Compound I-26, 2-({2-methyl-5-[2-(4-methylpiperazin-1-yl)ethyl]pyridin-3-yl}amino)-9-(trifluoromethyl)-5,7-dihydro-6H-pyrimido[5,4-d][1]benzazepine-6-thione]
- IC50: < 5 nM

Compound: CN(C)CCCc1cnc(F)c(Nc2ncc3c(n2)-c2ccc(Cl)cc2NC(=S)C3)c1 [Compound I-27, 9-chloro-2-({5-[3-(dimethylamino)propyl]-2-fluoropyridin-3-yl}amino)-5,7-dihydro-6H-pyrimido[5,4-d][1]benzazepine-6-thione]
- IC50: < 5 nM

Compound: CN1CCN(c2ccc(Nc3ncc4c(n3)-c3ccc(Cl)cc3NC(=S)C4)cn2)CC1 [Compound I-28, 9-chloro-2-{[6-(4-methylpiperazin-1-yl)pyridin-3-yl]amino}-5,7-dihydro-6H-pyrimido[5,4-d][1]benzazepine-6-thione]
- IC50: < 5 nM

Compound: Cc1nc(N2CCC(N(C)C)CC2)ccc1Nc1ncc2c(n1)-c1ccc(C(F)(F)F)cc1NC(=S)C2 [Compound I-29, 2-({6-[4-(dimethylamino)piperidin-1-yl]-2-methylpyridin-3-yl}amino)-9-(trifluoromethyl)-5,7-dihydro-6H-pyrimido[5,4-d][1]benzazepine-6-thione]
- IC50: < 5 nM

Compound: Cc1ncc(CCNC2CCCC2)cc1Nc1ncc2c(n1)-c1ccc(Cl)cc1NC(=S)C2 [Compound I-30, 9-chloro-2-({5-[2-(cyclopentylamino)ethyl]-2-methylpyridin-3-yl}amino)-5,7-dihydro-6H-pyrimido[5,4-d][1]benzazepine-6-thione]
- IC50: > 25 nM

Compound: Cc1ncc(CCN2C[C@@H](C)O[C@@H](C)C2)cc1Nc1ncc2c(n1)-c1ccc(Cl)cc1NC(=S)C2 [Compound I-31, 9-chloro-2-[(5-{2-[(2R,6S)-2,6-dimethylmorpholin-4-yl]ethyl}-2-methylpyridin-3-yl)amino]-5,7-dihydro-6H-pyrimido[5,4-d][1]benzazepine-6-thione]
- IC50: < 5 nM

Compound: CN(C)CCCc1cncc(Nc2ncc3c(n2)-c2ccc(C(F)(F)F)cc2NC(=S)C3)c1 [Compound I-32, 2-({5-[3-(dimethylamino)propyl]pyridin-3-yl}amino)-9-(trifluoromethyl)-5,7-dihydro-6H-pyrimido[5,4-d][1]benzazepine-6-thione]
- IC50: < 5 nM

Compound: CN(C)CCCc1cc2c(cc1Cl)NC(=S)Cc1cnc(Nc3cccnc3)nc1-2 [Compound I-33, 9-chloro-10-[3-(dimethylamino)propyl]-2-(pyridin-3-ylamino)-5,7-dihydro-6H-pyrimido[5,4-d][1]benzazepine-6-thione]
- IC50: 5 to 25 nM

Compound: Cc1ncc(CCN2CCCC(N(C)C)C2)cc1Nc1ncc2c(n1)-c1ccc(Cl)cc1NC(=S)C2 (stereo not shown) [Compound I-34, 9-chloro-2-[(5-{2-[3-(dimethylamino)piperidin-1-yl]ethyl}-2-methylpyridin-3-yl)amino]-5,7-dihydro-6H-pyrimido[5,4-d][1]benzazepine-6-thione]
- IC50: < 5 nM

Compound: Cc1nc(N(C)CCN(C)C)ccc1Nc1ncc2c(n1)-c1ccc(C(F)(F)F)cc1NC(=S)C2 [Compound I-35, 2-({6-[[2-(dimethylamino)ethyl](methyl)amino]-2-methylpyridin-3-yl}amino)-9-(trifluoromethyl)-5,7-dihydro-6H-pyrimido[5,4-d][1]benzazepine-6-thione]
- IC50: 5 to 25 nM

Compound: CN(C)CCCc1cnc(C(F)(F)F)c(Nc2ncc3c(n2)-c2ccc(C(F)(F)F)cc2NC(=S)C3)c1 [Compound I-36, 2-{[5-[3-(dimethylamino)propyl]-2-(trifluoromethyl)pyridin-3-yl]amino}-9-(trifluoromethyl)-5,7-dihydro-6H-pyrimido[5,4-d][1]benzazepine-6-thione]
- IC50: 5 to 25 nM

Compound: Cc1ccnc(C)c1Nc1ncc2c(n1)-c1ccc(Cl)cc1NC(=S)C2 [Compound I-37, 9-chloro-2-[(2,4-dimethylpyridin-3-yl)amino]-5,7-dihydro-6H-pyrimido[5,4-d][1]benzazepine-6-thione]
- IC50: > 25 nM

Compound: CCc1ncc(CCCN(C)C)cc1Nc1ncc2c(n1)-c1ccc(Cl)cc1NC(=S)C2 [Compound I-38, 9-chloro-2-({5-[3-(dimethylamino)propyl]-2-ethylpyridin-3-yl}amino)-5,7-dihydro-6H-pyrimido[5,4-d][1]benzazepine-6-thione]
- IC50: < 5 nM

Compound: Cc1ncc(CCCN(C)C)cc1Nc1ncc2c(n1)-c1ccc(C3CC3)cc1NC(=S)C2 [Compound I-39, 9-cyclopropyl-2-({5-[3-(dimethylamino)propyl]-2-methylpyridin-3-yl}amino)-5,7-dihydro-6H-pyrimido[5,4-d][1]benzazepine-6-thione]
- IC50: < 5 nM

Compound: Cc1nc(NCC2CCN(C)CC2)ccc1Nc1ncc2c(n1)-c1ccc(Cl)cc1NC(=S)C2 [Compound I-40, 9-chloro-2-[(2-methyl-6-{[(1-methylpiperidin-4-yl)methyl]amino}pyridin-3-yl)amino]-5,7-dihydro-6H-pyrimido[5,4-d][1]benzazepine-6-thione]
- IC50: < 5 nM

Compound: Cc1nc(N(C)CCCN(C)C)ccc1Nc1ncc2c(n1)-c1ccc(Cl)cc1NC(=S)C2 [Compound I-41, 9-chloro-2-({6-[[3-(dimethylamino)propyl](methyl)amino]-2-methylpyridin-3-yl}amino)-5,7-dihydro-6H-pyrimido[5,4-d][1]benzazepine-6-thione]
- IC50: 5 to 25 nM

Compound: Cc1nc(C)c(Nc2ncc3c(n2)-c2ccc(Cl)cc2NC(=S)C3)cc1CCCN(C)C [Compound I-42, 9-chloro-2-({5-[3-(dimethylamino)propyl]-2,6-dimethylpyridin-3-yl}amino)-5,7-dihydro-6H-pyrimido[5,4-d][1]benzazepine-6-thione]
- IC50: < 5 nM

Compound: Cc1ncc(CCN2CCOCC2)cc1Nc1ncc2c(n1)-c1ccc(C(F)(F)F)cc1NC(=S)C2 [Compound I-43, 2-{[2-methyl-5-(2-morpholin-4-ylethyl)pyridin-3-yl]amino}-9-(trifluoromethyl)-5,7-dihydro-6H-pyrimido[5,4-d][1]benzazepine-6-thione]
- IC50: < 5 nM

Compound: Cc1nc(CC2CCN(C)CC2)ccc1Nc1ncc2c(n1)-c1ccc(Cl)cc1NC(=S)C2 [Compound I-44, 9-chloro-2-({2-methyl-6-[(1-methylpiperidin-4-yl)methyl]pyridin-3-yl}amino)-5,7-dihydro-6H-pyrimido[5,4-d][1]benzazepine-6-thione]
- IC50: 5 to 25 nM

Compound: Cc1ncc(CCN2CCCC2)cc1Nc1ncc2c(n1)-c1ccc(Cl)cc1NC(=S)C2 [Compound I-45, 9-chloro-2-{[2-methyl-5-(2-pyrrolidin-1-ylethyl)pyridin-3-yl]amino}-5,7-dihydro-6H-pyrimido[5,4-d][1]benzazepine-6-thione]
- IC50: < 5 nM

Compound: Cc1ncc(N2CCN(C)CC2)cc1Nc1ncc2c(n1)-c1ccc(C(F)(F)F)cc1NC(=S)C2 [Compound I-46, 2-{[2-methyl-5-(4-methylpiperazin-1-yl)pyridin-3-yl]amino}-9-(trifluoromethyl)-5,7-dihydro-6H-pyrimido[5,4-d][1]benzazepine-6-thione]
- IC50: < 5 nM

Compound: S=C1Cc2cnc(Nc3ccc(N4CCCC4)nc3)nc2-c2ccc(Cl)cc2N1 [Compound I-47, 9-chloro-2-[(6-pyrrolidin-1-ylpyridin-3-yl)amino]-5,7-dihydro-6H-pyrimido[5,4-d][1]benzazepine-6-thione]
- IC50: < 5 nM

Compound: CCN1[C@H](C)CN(c2cnc(C)c(Nc3ncc4c(n3)-c3ccc(Cl)cc3NC(=S)C4)c2)C[C@@H]1C [Compound I-49, 9-chloro-2-({5-[(3R,5S)-4-ethyl-3,5-dimethylpiperazin-1-yl]-2-methylpyridin-3-yl}amino)-5,7-dihydro-6H-pyrimido[5,4-d][1]benzazepine-6-thione]
- IC50: < 5 nM

Compound: Cc1ncc(CCN(C)C)cc1Nc1ncc2c(n1)-c1ccc(C(F)(F)F)cc1NC(=S)C2 [Compound I-50, 2-({5-[2-(dimethylamino)ethyl]-2-methylpyridin-3-yl}amino)-9-(trifluoromethyl)-5,7-dihydro-6H-pyrimido[5,4-d][1]benzazepine-6-thione]
- IC50: < 5 nM

Compound: CN1CCN(CCc2cncc(Nc3ncc4c(n3)-c3ccc(Cl)cc3NC(=S)C4)c2)CC1 [Compound I-51, 9-chloro-2-({5-[2-(4-methylpiperazin-1-yl)ethyl]pyridin-3-yl}amino)-5,7-dihydro-6H-pyrimido[5,4-d][1]benzazepine-6-thione]
- IC50: < 5 nM

Compound: Cc1ncc(CCN2CCC(N(C)C)CC2)cc1Nc1ncc2c(n1)-c1ccc(C(F)(F)F)cc1NC(=S)C2 [Compound I-52, 2-[(5-{2-[4-(dimethylamino)piperidin-1-yl]ethyl}-2-methylpyridin-3-yl)amino]-9-(trifluoromethyl)-5,7-dihydro-6H-pyrimido[5,4-d][1]benzazepine-6-thione]
- IC50: < 5 nM

Compound: Cc1ncc(CCN2CCCCC2)cc1Nc1ncc2c(n1)-c1ccc(Cl)cc1NC(=S)C2 [Compound I-54, 9-chloro-2-{[2-methyl-5-(2-piperidin-1-ylethyl)pyridin-3-yl]amino}-5,7-dihydro-6H-pyrimido[5,4-d][1]benzazepine-6-thione]
- IC50: < 5 nM
